One assay deals with activated human C1. The assay is described as follows: Test Code 026 (C1 inhibitor). The class given is biochemical. The conditions noted are these: serial two fold dilution assay; higher well number indicates higher activity; protection of human C2 from C1 and C4. The method, then: (§1) An active inhibitor protects C2 from C1 and C4; (ii) Test Code 035 (C3-C9 inhibitor)-This test determines the ability of the late components of human complement (C3-C9) to lyse EAC 142 in the presence of appropriate dilutions of the test compound. An active inhibitor protects EAC 142 from lysis by human C3-C9; and (iii) Cap 50 Test-Here, appropriate amounts of the test compound are added to a pool of guinea pig serum in vitro, after which the undiluted serum capillary tube assay of U.S. Pat. No. 3,876,376 is run. The concentration of compound inhibiting 50% is reported.

The test system of assay [1] is late components of human complement (C3-C9). In words: Test Code 035 (C3-C9 inhibitor). The class given is biochemical. As to conditions: serial two fold dilution assay; higher well number indicates higher activity; protection of EAC 142 from lysis. The method, then:
as §1

Here are results for two compounds from patent publication US4402944A, “Polysulfonate Sennoside A & B compounds and method of use” (American Cyanamid Company, priority 1982, dated 1983).

Counter-ions that a name gives are not always drawn.

As for `O=C(O)c1cc(OS(=O)(=O)O)c2c(c1)[C@H]([C@H]1c3cccc(O[C@@H]4O[C@H](COS(=O)(=O)O)[C@@H](OS(=O)(=O)O)[C@H](OS(=O)(=O)O)[C@H]4OS(=O)(=O)O)c3C(=O)c3c(OS(=O)(=O)O)cc(C(=O)O)cc31)c1cccc(O[C@@H]3O[C@H](COS(=O)(=O)O)[C@@H](OS(=O)(=O)O)[C@H](OS(=O)(=O)O)[C@H]3OS(=O)(=O)O)c1C2=O` (relative stereo) [(R*,S*)-5,5'-Bis-(β-D-glucopyranosyloxy)-9,9',10,10'-tetrahydro-4,4'-dihydroxy-10,10'-dioxo-[9,9'-bianthracene]-2,2'-dicarboxylic acid, decakis (H-sulfate), decasodium salt], the “026 (C1 inhibitor), activity in wells” value with activated human C1 turned out to be 7 wells. Further, the “035 (C3-C9 inhibitor), activity in wells” value in assay [1] was found to be 1 wells.

For `O=C(O)c1cc(OS(=O)(=O)O)c2c(c1)C(C1c3cccc(OC4OC(COS(=O)(=O)O)C(OS(=O)(=O)O)C(OS(=O)(=O)O)C4OS(=O)(=O)O)c3C(=O)c3c(OS(=O)(=O)O)cc(C(=O)O)cc31)c1cccc(OC3OC(COS(=O)(=O)O)C(OS(=O)(=O)O)C(OS(=O)(=O)O)C3OS(=O)(=O)O)c1C2=O` [(R*,R*)-5,5'-Bis-(β-D-glucopyranosyloxy)-9,9',10,10'-tetrahydro-4,4'-dihydroxy-10,10'-dioxo-[9,9'-bianthracene]-2,2'-dicarboxylic acid, decakis (H-sulfate), decasodium salt], in the assay with activated human C1, the “026 (C1 inhibitor), activity in wells” value was found to be 8 wells. Besides, the “035 (C3-C9 inhibitor), activity in wells” value in assay [1] was found to be 2 wells.
